Data: ChEMBL document CHEMBL3797053, “2-Alkoxy-3-(sulfonylarylaminomethylene)-chroman-4-ones as potent and selective inhibitors of ectonucleotidases” (Eur J Med Chem, 2016)

Experiments:
[1] = molecular target: Intestinal-type alkaline phosphatase (Bos taurus, UniProt P19111); test: Inhibition of calf intestinal alkaline phosphatase preincubated for 3 to 5 mins followed by CDP-star substrate addition measured after 15 mins by luminescence assay
[2] = molecular target: T1, Alkaline phosphatase, tissue-nonspecific isozyme (Bos taurus, UniProt P09487); test: Inhibition of bovine tissue non-specific alkaline phosphatase preincubated for 3 to 5 mins followed by CDP-star substrate addition measured after 15 mins by luminescence assay
T1 sequence (P09487 whole entry): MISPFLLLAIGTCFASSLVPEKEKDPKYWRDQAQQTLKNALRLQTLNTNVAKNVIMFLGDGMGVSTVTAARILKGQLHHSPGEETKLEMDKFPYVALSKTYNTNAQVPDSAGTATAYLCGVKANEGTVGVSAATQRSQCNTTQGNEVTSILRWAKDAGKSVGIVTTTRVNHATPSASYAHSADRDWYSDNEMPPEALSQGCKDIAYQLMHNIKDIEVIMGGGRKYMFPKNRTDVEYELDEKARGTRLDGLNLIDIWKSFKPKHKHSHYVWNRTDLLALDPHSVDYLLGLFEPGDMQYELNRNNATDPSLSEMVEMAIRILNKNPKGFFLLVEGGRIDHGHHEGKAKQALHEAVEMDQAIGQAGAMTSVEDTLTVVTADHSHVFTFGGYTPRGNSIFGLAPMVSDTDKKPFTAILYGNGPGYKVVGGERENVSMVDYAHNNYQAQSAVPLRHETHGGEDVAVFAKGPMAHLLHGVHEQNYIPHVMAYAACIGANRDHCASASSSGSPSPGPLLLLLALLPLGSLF

5'-nucleotidase [3] = molecular target: T2, 5'-nucleotidase (Homo sapiens, UniProt P21589); test: Inhibition of human Ecto-5'-nucleotidase transfected in COS7 cells preincubated for 10 mins followed by AMP addition measured after 10 mins; format: cell-based, COS-7
T2 sequence (P21589 whole entry): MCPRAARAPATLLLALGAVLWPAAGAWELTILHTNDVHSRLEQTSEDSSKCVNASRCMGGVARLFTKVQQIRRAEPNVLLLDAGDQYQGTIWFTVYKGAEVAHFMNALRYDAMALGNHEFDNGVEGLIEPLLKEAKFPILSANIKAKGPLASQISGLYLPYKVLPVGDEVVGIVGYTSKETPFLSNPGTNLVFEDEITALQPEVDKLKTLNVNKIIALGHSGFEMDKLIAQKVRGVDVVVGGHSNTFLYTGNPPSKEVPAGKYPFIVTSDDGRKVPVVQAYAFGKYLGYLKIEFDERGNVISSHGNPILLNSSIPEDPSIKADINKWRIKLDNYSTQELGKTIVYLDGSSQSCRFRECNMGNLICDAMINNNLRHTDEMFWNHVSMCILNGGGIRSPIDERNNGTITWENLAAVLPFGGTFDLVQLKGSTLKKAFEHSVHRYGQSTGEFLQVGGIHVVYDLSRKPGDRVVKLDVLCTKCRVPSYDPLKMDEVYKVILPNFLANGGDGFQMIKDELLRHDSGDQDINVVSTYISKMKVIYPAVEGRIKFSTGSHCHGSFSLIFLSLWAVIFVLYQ

5'-nucleotidase [4] = molecular target: T3, 5'-nucleotidase (Rattus norvegicus, UniProt P21588); test: Inhibition of rat Ecto-5'-nucleotidase transfected in COS7 cells preincubated for 10 mins followed by AMP addition measured after 10 mins; format: cell-based, COS-7
T3 sequence (P21588 whole entry): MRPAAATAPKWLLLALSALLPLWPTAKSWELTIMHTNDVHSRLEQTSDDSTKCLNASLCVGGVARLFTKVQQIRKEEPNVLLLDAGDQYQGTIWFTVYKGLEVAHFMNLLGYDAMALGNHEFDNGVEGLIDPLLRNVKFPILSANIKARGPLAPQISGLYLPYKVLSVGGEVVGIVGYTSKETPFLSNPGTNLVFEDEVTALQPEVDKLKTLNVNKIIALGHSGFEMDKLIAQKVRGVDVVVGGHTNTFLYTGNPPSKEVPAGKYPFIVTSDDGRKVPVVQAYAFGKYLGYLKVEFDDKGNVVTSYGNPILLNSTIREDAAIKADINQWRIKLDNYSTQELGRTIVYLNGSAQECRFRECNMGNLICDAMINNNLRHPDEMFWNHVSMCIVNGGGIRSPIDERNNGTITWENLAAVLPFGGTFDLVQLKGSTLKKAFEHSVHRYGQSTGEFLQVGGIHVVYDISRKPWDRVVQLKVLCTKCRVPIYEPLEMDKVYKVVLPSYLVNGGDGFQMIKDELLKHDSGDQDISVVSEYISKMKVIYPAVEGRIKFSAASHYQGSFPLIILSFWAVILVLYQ

[5] = molecular target: T4, Alkaline phosphatase, tissue-nonspecific isozyme (Bos taurus) (UniProt P09487); test: Inhibition of bovine tissue non-specific alkaline phosphatase at 0.2 mM preincubated for 3 to 5 mins followed by CDP-star substrate addition measured after 15 mins by luminescence assay
T4 sequence (whole entry): T1 sequence (P09487 whole entry)

5'-nucleotidase [6] = molecular target: T2, 5'-nucleotidase; test: Inhibition of human Ecto-5'-nucleotidase transfected in COS7 cells at 1 mM preincubated for 10 mins followed by AMP addition measured after 10 mins; format: cell-based; settings: COS-7
[7] = molecular target: T5, 5'-nucleotidase (Rattus norvegicus) (UniProt P21588); test: Inhibition of rat Ecto-5'-nucleotidase transfected in COS7 cells at 1 mM preincubated for 10 mins followed by AMP addition measured after 10 mins; format: cell-based; settings: COS-7
T5 sequence (whole entry): T3 sequence (P21588 whole entry)

Sequence of Intestinal-type alkaline phosphatase (P19111 whole entry): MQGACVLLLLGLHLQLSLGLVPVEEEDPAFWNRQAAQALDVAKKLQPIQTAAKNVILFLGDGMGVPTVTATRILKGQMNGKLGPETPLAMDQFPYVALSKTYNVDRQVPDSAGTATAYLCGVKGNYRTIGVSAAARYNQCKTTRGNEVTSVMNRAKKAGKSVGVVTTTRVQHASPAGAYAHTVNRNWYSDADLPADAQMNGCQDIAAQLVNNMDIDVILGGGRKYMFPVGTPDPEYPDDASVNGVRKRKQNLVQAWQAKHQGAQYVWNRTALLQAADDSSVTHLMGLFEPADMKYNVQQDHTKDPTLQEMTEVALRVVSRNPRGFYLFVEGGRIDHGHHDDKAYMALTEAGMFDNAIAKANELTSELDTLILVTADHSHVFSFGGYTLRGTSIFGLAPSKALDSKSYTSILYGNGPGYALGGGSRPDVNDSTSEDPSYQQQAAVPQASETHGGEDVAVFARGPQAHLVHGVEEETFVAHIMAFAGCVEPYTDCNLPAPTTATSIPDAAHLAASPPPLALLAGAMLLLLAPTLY

Row | SMILES | IC50 [1] [nM] | Ki [1] [nM] | IC50 [2] [nM] | Ki [2] [nM] | IC50 (5'-nucleotidase [3]) [nM] | Ki (5'-nucleotidase [3]) [nM] | IC50 (5'-nucleotidase [4]) [nM] | Ki (5'-nucleotidase [4]) [nM] | inhibition [5] [%] | inhibition (5'-nucleotidase [6]) [%] | inhibition [7] [%]
1 | CCCCOC1Oc2ccccc2C(=O)/C1=C\Nc1cccc(S(N)(=O)=O)c1 (racemic) | 2290 | 978 | 77800 | 33200 | 377 | 18 | 3610 | 172 |  |  | 
2 | COC1Oc2ccc(Cl)cc2C(=O)/C1=C\Nc1ccc(S(N)(=O)=O)cc1 (racemic) | 4430 | 1890 |  |  | 1660 | 79 | 1710 | 81 | 20.9 |  | 
3 | O=c1c(C2Nc3ccccc3S(=O)(=O)N2)coc2ccccc12 (racemic) |  |  |  |  |  |  | 3810 | 181 |  |  | 
4 | CCOC1Oc2ccccc2C(=O)/C1=C\Nc1ccc(S(=O)(=O)Nc2ccc(OC)nn2)cc1 (racemic) |  |  |  |  |  |  | 1090 | 51.7 |  |  | 
5 | COC1Oc2ccc(C)cc2C(=O)/C1=C\Nc1cccc(S(N)(=O)=O)c1 (racemic) | 6560 | 2770 | 110000 | 47200 |  |  |  |  |  | 44.5 | 47.5
6 | CCCCOC1Oc2ccccc2C(=O)/C1=C\Nc1ccc(S(N)(=O)=O)cc1 (racemic) | 48300 | 20600 | 4570 | 1950 | 1320 | 63 |  |  |  |  | 6.66
7 | CCOC1Oc2ccc(Br)cc2C(=O)/C1=C\Nc1cccc(S(N)(=O)=O)c1 (racemic) |  |  |  |  |  |  | 6130 | 292 |  |  | 
8 | COC1Oc2ccc(C)cc2C(=O)/C1=C\Nc1ccc(S(N)(=O)=O)cc1 (racemic) | 3130 | 1340 | 8170 | 3490 |  |  |  |  |  | 47 | 42.9
9 | CCOC1Oc2ccccc2C(=O)/C1=C\Nc1ccc(S(=O)(=O)Nc2cc(OC)nc(OC)n2)cc1 (racemic) |  |  |  |  |  |  |  |  |  |  | 28.2
10 | O=c1c(C2Nc3ccccc3S(=O)(=O)N2)coc2ccc(F)cc12 (racemic) |  |  |  |  |  |  | 2710 | 129 |  |  | 
11 | COC1Oc2ccccc2C(=O)/C1=C\Nc1ccccc1S(N)(=O)=O (racemic) | 7810 | 3340 | 715000 | 305000 | 1910 | 91 | 2390 | 114 |  |  | 
12 | CCOC1Oc2ccc(CC)cc2C(=O)/C1=C\Nc1ccccc1S(N)(=O)=O (racemic) |  |  |  |  |  |  | 101 | 4.7 |  |  | 
13 | CCOC1Oc2ccc(F)cc2C(=O)/C1=C\Nc1cccc(S(N)(=O)=O)c1 (racemic) |  |  |  |  |  |  | 990 | 47 |  |  | 
14 | CCOC1Oc2ccc(Br)cc2C(=O)/C1=C\Nc1ccc(S(N)(=O)=O)cc1 (racemic) |  |  |  |  |  |  |  |  |  |  | 29.7
15 | COC1Oc2ccc(Cl)cc2C(=O)/C1=C\Nc1cccc(S(N)(=O)=O)c1 (racemic) | 31900 | 13600 |  |  | 560 | 27 | 2380 | 113 | 34.2 |  | 
16 | CCOC1Oc2ccccc2C(=O)/C1=C\Nc1ccc(S(=O)(=O)Nc2nnc(C)s2)cc1 (racemic) |  |  |  |  |  |  |  |  |  |  | 48

Row | SMILES | IC50 [1] [nM] | Ki [1] [nM] | IC50 [2] [nM] | Ki [2] [nM] | IC50 (5'-nucleotidase [3]) [nM] | Ki (5'-nucleotidase [3]) [nM] | IC50 (5'-nucleotidase [4]) [nM] | Ki (5'-nucleotidase [4]) [nM] | inhibition [5] [%] | inhibition (5'-nucleotidase [6]) [%] | inhibition [7] [%]
17 | COC1Oc2c(Cl)cc(Cl)cc2C(=O)/C1=C\Nc1ccccc1S(N)(=O)=O (racemic) | 9870 | 4210 | 5360 | 2280 | 880 | 42 | 1840 | 87 |  |  | 
18 | COC1Oc2ccc(F)cc2C(=O)/C1=C\Nc1cccc(S(N)(=O)=O)c1 (racemic) | 13500 | 5660 | 1460 | 623 |  |  |  |  |  | 44.4 | 46
19 | CCOC1Oc2ccc(F)cc2C(=O)/C1=C\Nc1ccc(S(N)(=O)=O)cc1 (racemic) |  |  |  |  |  |  | 2130 | 101 |  |  | 
20 | CCOC1Oc2ccccc2C(=O)/C1=C\Nc1cccc(S(N)(=O)=O)c1 (racemic) |  |  |  |  |  |  |  |  |  |  | 30.1
21 | CCOC1Oc2ccc(CC)cc2C(=O)/C1=C\Nc1cccc(S(N)(=O)=O)c1 (racemic) |  |  |  |  |  |  |  |  |  |  | 40.5
22 | CCOC1Oc2ccccc2C(=O)/C1=C\Nc1ccc(S(N)(=O)=O)cc1 (racemic) |  |  |  |  |  |  |  |  |  |  | 39.5
23 | COC1Oc2ccc(F)cc2C(=O)/C1=C\Nc1ccccc1S(N)(=O)=O (racemic) | 10200 | 4260 | 17100 | 7290 |  |  |  |  |  | 48.2 | 45.4
24 | CCOC1Oc2ccc(Br)cc2C(=O)/C1=C\Nc1ccc(S(=O)(=O)Nc2ccccn2)cc1 (racemic) |  |  |  |  |  |  |  |  |  |  | 23.6
25 | CCOC1Oc2ccccc2C(=O)/C1=C\Nc1ccc(S(=O)(=O)Nc2ccccn2)cc1 (racemic) |  |  |  |  |  |  | 15200 | 712 |  |  | 
26 | COC1Oc2c(Cl)cc(Cl)cc2C(=O)/C1=C\Nc1cccc(S(N)(=O)=O)c1 (racemic) | 8340 | 3590 | 3520 | 1490 | 970 | 46 | 4810 | 229 |  |  | 
27 | COC1Oc2c(Cl)cc(Cl)cc2C(=O)/C1=C\Nc1ccc(S(N)(=O)=O)cc1 (racemic) | 3250 | 1380 | 16200 | 6190 | 2920 | 138 | 10100 | 472 |  |  | 
28 | CCOC1Oc2ccc(CC)cc2C(=O)/C1=C\Nc1ccc(S(N)(=O)=O)cc1 (racemic) |  |  |  |  |  |  | 3730 | 178 |  |  | 
29 | CCOC1Oc2c(Br)cc(Br)cc2C(=O)/C1=C\Nc1ccccc1S(N)(=O)=O (racemic) |  |  |  |  |  |  | 40100 | 1910 |  |  | 
30 | CC(C)OC1Oc2ccccc2C(=O)/C1=C\Nc1ccc(S(N)(=O)=O)cc1 (racemic) | 527 | 220 | 47100 | 20100 | 1170 | 53 | 540 | 26 |  |  | 
31 | COC1Oc2ccc(F)cc2C(=O)/C1=C\Nc1ccc(S(N)(=O)=O)cc1 (racemic) | 68600 | 29100 | 17600 | 7510 |  |  |  |  |  | 46.8 | 46.4
32 | O=c1c(C2Nc3ccccc3S(=O)(=O)N2)coc2ccc(Br)cc12 (racemic) |  |  |  |  |  |  |  |  |  |  | 20.3
